Experimental data taken from US20140073631A1 (priority 2012, published 2014).
≈ marks a conversion by molar mass, not a printed value.

What was measured:
Assay in all cases: microbe, parasite or virus in culture
[1] = test system: isoniazid (INH)-resistant Mtb (SRI 1369); type: cell-based, Mycobacterium tuberculosis; settings: for MIC: Mycobacterium tuberculosis, read-out: MIC INH-R
[2] = test system: ofloxacin (OFX)-resistant Mtb (SRI 4000); type: cell-based, Mycobacterium tuberculosis; settings: for MIC: Mycobacterium tuberculosis, read-out: MIC OFX-R
[3] = test system: ATCC 35821 Para-aminosalicylic Resistant; type: cell-based, Mycobacterium tuberculosis; settings: for MIC: Mycobacterium tuberculosis, ATCC35821, read-out: MIC Value, ATCC 35821 Para-aminosalicylic Resistant
[4] = test system: ATCC 35820 Streptomycin Resistant; type: cell-based; settings: Mycobacterium tuberculosis, ATCC35820, read-out: MIC Value, ATCC 35820 Streptomycin Resistant
[5] = test system: ATCC 35827 Kanamycin Resistant; type: cell-based; settings: Mycobacterium tuberculosis, ATCC35827, read-out: MIC Value, ATCC 35827 Kanamycin Resistant
[6] = test system: ATCC 35822 Isoniazid Resistant; type: cell-based; settings: Mycobacterium tuberculosis, ATCC35822, read-out: MIC Value, ATCC 35822 Isoniazid Resistant
[7] = test system: ATCC 35837 Ethambutol Resistant; type: cell-based; settings: Mycobacterium tuberculosis, ATCC35837, read-out: MIC Value, ATCC 35837 Ethambutol Resistant
[8] = test system: ATCC 35830 Ethionamide Resistant; type: cell-based; settings: Mycobacterium tuberculosis, ATCC35830, read-out: MIC Value, ATCC 35830 Ethionamide Resistant
[9] = test system: rifampin (RMP)-resistant Mtb (SRI 1367); type: cell-based, Mycobacterium tuberculosis; settings: for MIC: Mycobacterium tuberculosis, read-out: MIC RMP-R

SMILES	MIC [4] [µg/mL]	MIC [5] [µg/mL]	MIC [6] [µg/mL]	MIC [7] [µg/mL]	MIC [8] [µg/mL]	further results
CO[C@H]1/C=C/O[C@@]2(C)Oc3c(C)c(O)c4c(O)c(c(/C=N/N5CCN(C)CC5)c(O)c4c3C2=O)NC(=O)/C(C)=C\C=C\[C@H](C)[C@H](O)[C@@H](C)[C@@H](O)[C@@H](C)[C@H](OC(C)=O)[C@@H]1C [Rifampin, rifampin, reference compound]	–	–	–	–	–	% inhibition at the MIC concentration [1]: 67%; MIC [1]: 0.049 µg/mL (≈ 0.0595 µM); % inhibition at the MIC concentration [2]: 75%; MIC [2]: 0.195 µg/mL (≈ 0.237 µM)
C[C@@H]1COc2c(N3CCN(C(=N)NC(=N)N4CCN(c5c(F)cc6c(=O)c(C(=O)O)cn7c6c5OC[C@@H]7C)CC4)CC3)c(F)cc3c(=O)c(C(=O)O)cn1c23 [BVS-76D (XVII)]	0.312 (≈ 0.41 µM)	0.625 (≈ 0.82 µM)	0.625 (≈ 0.82 µM)	0.312 to 0.625 (≈ 0.41 to 0.82 µM)	0.156 (≈ 0.205 µM)	MIC [3]: 0.625 to 1.25 µg/mL (≈ 0.82 to 1.64 µM)
NNC(=O)c1ccncc1 [Isoniazid, isoniazid, reference compound]	–	–	> 8	–	–	% inhibition at the MIC concentration [9]: 86%; MIC [9]: 0.02 µg/mL (≈ 0.146 µM)
N=C(NCCCCCCNC(=N)NC(=N)N1CCN(c2cc3c(cc2F)c(=O)c(C(=O)O)cn3C2CC2)CC1)NC(=N)N1CCN(c2cc3c(cc2F)c(=O)c(C(=O)O)cn3C2CC2)CC1 [BVS-10A]	–	–	–	–	–	% inhibition at the MIC concentration [9]: 58%; MIC [9]: 6.25 µg/mL (≈ 6.85 µM); % inhibition at the MIC concentration [1]: 53%; MIC [1]: 1.56 µg/mL (≈ 1.71 µM); % inhibition at the MIC concentration [2]: 74%; MIC [2]: 0.781 µg/mL (≈ 0.855 µM)
C[C@@H]1COc2c(N3CCN(C(=N)NC(=N)NCCCCCCNC(=N)NC(=N)N4CCN(c5c(F)cc6c(=O)c(C(=O)O)cn7c6c5OC[C@@H]7C)CC4)CC3)c(F)cc3c(=O)c(C(=O)O)cn1c23 [BVS-85A (XVII)]	0.625 (≈ 0.661 µM)	1.25 to 2.5 (≈ 1.32 to 2.65 µM)	1.25 (≈ 1.32 µM)	1.25 (≈ 1.32 µM)	0.625 (≈ 0.661 µM)	MIC [3]: 2.5 µg/mL (≈ 2.65 µM)
[H]/N=C(/N)N[C@H]1[C@H](O)[C@@H](O)[C@H](O[C@@H]2O[C@@H](C)[C@](O)(C=O)[C@H]2O[C@@H]2O[C@@H](CO)[C@H](O)[C@@H](O)[C@@H]2NC)[C@@H](N/C(N)=N\[H])[C@@H]1O [Streptomycin, reference compound]	> 8	–	–	–	–	–
CCc1cc(C(N)=S)ccn1 [Ethionamide, reference compound]	–	–	–	–	> 8	–
Nc1ccc(C(=O)O)c(O)c1 [Para-aminosalicylic, reference compound]	–	–	–	–	–	MIC Value, ATCC 35821 Para-aminosalicylic Resistant [3]: >8 µg/mL
NC[C@H]1O[C@H](O[C@H]2[C@H](O)[C@@H](O[C@H]3O[C@H](CO)[C@@H](O)[C@H](N)[C@H]3O)[C@H](N)C[C@@H]2N)[C@H](O)[C@@H](O)[C@@H]1O [Kanamycin, reference compound]	–	> 8	–	–	–	–
CC1COc2c(N3CCN(C(=N)NC#N)CC3)c(F)cc3c(=O)c(C(=O)O)cn1c23 (stereo not drawn) [BVS-60C (XVII)]	0.312 (≈ 0.753 µM)	0.625 (≈ 1.51 µM)	0.625 (≈ 1.51 µM)	0.625 (≈ 1.51 µM)	0.312 (≈ 0.753 µM)	MIC [3]: 0.625 to 1.25 µg/mL (≈ 1.51 to 3.02 µM)
CC[C@@H](CO)NCCN[C@@H](CC)CO [Ethambutol, reference compound]	–	–	–	> 8	–	–
